The results in this text go back to patent US20230339835A1, “2,3,5-TRIMETHYL-6-NONYLCYCLOHEXA-2,5-DIENE-1,4-DIONE FOR SUPPRESSING AND TREATING ALPHA-SYNUCLEINOPATHIES, TAUOPATHIES, AND OTHER DISORDERS” (PTC THERAPEUTICS, INC., priority 2018, published 2023).

Molecules are shown by their SMILES.

The test system of test [1] is C57Bl/6 mice, MPTP-induced model of PD. Briefly: Mouse MPTP model of Parkinson's Disease, open field locomotor assay. The format is in vivo. As to conditions: 300 mg/kg PO QD Day -2 to Day 7, MPTP 60 mg/kg, Day 7. An excerpt: Animals. Species: Mouse. Strain: C57Bl/6. Source of Animals: Charles River. Age: 6 to 7 weeks. Sex: Male. Randomization: Animals were assigned randomly to treatment groups. Blinding of Study: Experimenters were blinded to the experimental treatments
Housing and Feeding. Acclimation/Conditioning: Not less than three days. Housing: Mice were housed on a 12 hr light/dark cycle (lights on 6:00 AM) No more than 4 mice per cage. Ventilated cage rack system. Diet: Standard rodent chow and water ad libitum.
Design Parameters. Route(s) of administration: PO. Dose Volume: PO: 5 mL/kg. Formulation(s): formulated by Melior according to directions from BioElectron. Vehicle-sesame oil (Spectrum Chemical, NF Catalog #SE130, CAS #8008-74-0). Dose Levels: 300 mg/kg. Dose Frequency: QD starting Day −2 (MPTP=Day 0) and until Day 7. Study duration: 11 days. Pretreatment time (up to 2 hrs): For Day 0 (MPTP Day): 30 min, Pretreatment time for Open Field Assay/Locomotor Activity (OFA/LMA) assay: 1 hr. Number of Groups: 3. Number of animals per group: 10. Total number of animals: 30 (in the study), 42 animals total (To ensure a proper power analysis of at least 10 animals/group, for all groups receiving MPTP, 4 additional animals were added to mitigate study impacts if there were MPTP-induced fatalities).
MPTP Treatment. MPTP was formulated in phosphate buffered saline and administered to mice three times at a dose of 20 mg/kg (1 mg/mL delivered at 20 mL/kg) at two-hour intervals (final dose of MPTP=60 mg/kg).
Locomotor activity. One day prior (baseline) and on Day 7 after MPTP administration (Day (−1) and Day 7), mice were monitored for various aspects of locomotor function using a fully automated open-field apparatus (Med-Associates, Inc). The apparatus consisted of a 10.75″×10.75″ arena enclosed in a sound-attenuated box, equipped with the fan and house light. […]
Data analysis. Data were averaged and are expressed as the average±SEM.
Data were analyzed by one-way ANOVA followed by a post-hoc tests. p-values of less than 0.05 were considered to be statistically significant from control.

Test [2] relates to AD patient fibroblasts AG11414. In words: Rescue of AD patient fibroblasts from BSO plus iron-induced oxidative stress, AG11414. The format is cell-based. As to conditions: Homo sapiens, Fibroblast. As to the method:
(§1) An initial screen was performed to identify the effectiveness of compounds for the amelioration of PD and AD. Test samples and solvent controls were tested for their ability to rescue PD and AD fibroblasts stressed by addition of L-buthionine-(S,R)-sulfoximine (BSO, a specific inhibitor of GSH synthetase) plus iron (e.g. iron citrate), in a similar manner as that described in Jauslin et al., Hum. Mol. Genet. 11(24):3055 (2002), Jauslin et al., FASEB J. 17:1972-4 (2003), and International Patent Application WO 2004/003565. This specific BSO-mediated cell death was prevented or ameliorated by administration of compounds described herein.
(§2) The AD experiments were performed as follows. PD experiments were performed in a similar manner; certain specific conditions are noted below in Table 1A.
(§3) MEM (a medium enriched in amino acids and vitamins) and Medium 199 (M199) with Earle's Balanced Salts (EBS), without phenol red, were purchased from Invitrogen. Fetal Calf Serum was obtained from Corning. […]
(§4) 100 microliters of Calcein AM (1 microM) in PBS+Ca+Mg was then added to each well. […] After that time fluorescence (excitation/emission wavelengths of 485 nm and 525 nm, respectively) was read on a Spectramax fluorescence reader. Data were analyzed using standard four-parameter curve fit algorithms (XLFit or Prism) to determine the EC50 concentration for each compound.

Test [3] relates to AD patient fibroblasts AG04402. Briefly: Rescue of AD patient fibroblasts from BSO plus iron-induced oxidative stress, AG04402. The test is classed as cell-based. As to conditions: Homo sapiens, Fibroblast. As to the method: as §1, §2, §3, §4
In test [4] the test system is AD patient fibroblasts ND41001. In words: Rescue of AD patient fibroblasts from BSO plus iron-induced oxidative stress, ND41001. The test is classed as cell-based. As to conditions: Homo sapiens, Fibroblast. As to the method: as §1, §2, §3, §4
[5] abbreviates: Iron citrate (100 μM) + BSO (100 μM).
Where [6] appears, read: Iron citrate (200 μM) + BSO (100 μM).

What is called EC50 is the midpoint of the concentration-response curve. As for `CCCCCCCCCC1=C(C)C(=O)C(C)=C(C)C1=O` [Compound C9, 2,3,5-trimethyl-6-nonylcyclohexa-2,5-diene-1,4-dione], the “open field locomotor assay (vertical time)” value in test [1] (MPTP+Vehicle vs. MPTP+C9 p<0.001) is given as “restored vertical time”. Besides, the “open field locomotor assay (vertical counts)” value in test [1] (MPTP+Vehicle vs. MPTP+C9 p<0.01) was “restored vertical counts”. The EC50 came to 11 nM in test [2] (setting [5]); 23 nM in test [2] (setting [6]); 5 nM in test [3] (setting [5]); 12 nM in test [3] (setting [6]); 13 nM in test [4] (Iron citrate (50 μM) + BSO (50 μM)); 17 nM in test [4] (Iron citrate (100 μM) + BSO (25 μM)).
